Patent publication US20250135006A1, “AMPHIPHILIC TLR7/8 ADJUVANTS AND USES THEREOF” (Pfizer Inc., priority 2023, published 2025)

Tests used:
[1] = biological target: T1, human toll like receptor 7 (hTLR7) (Homo sapiens, UniProt Q9NYK1); assay: hTLR7 in-vitro functional assay (HEK-Blue hTLR7 SEAP reporter); type: cell-based; conditions: HEK-Blue hTLR7 cells, overnight incubation
T1 construct: host or cells: HEK293 (HEK-Blue hTLR7)
T1 sequence (Q9NYK1 27-1049): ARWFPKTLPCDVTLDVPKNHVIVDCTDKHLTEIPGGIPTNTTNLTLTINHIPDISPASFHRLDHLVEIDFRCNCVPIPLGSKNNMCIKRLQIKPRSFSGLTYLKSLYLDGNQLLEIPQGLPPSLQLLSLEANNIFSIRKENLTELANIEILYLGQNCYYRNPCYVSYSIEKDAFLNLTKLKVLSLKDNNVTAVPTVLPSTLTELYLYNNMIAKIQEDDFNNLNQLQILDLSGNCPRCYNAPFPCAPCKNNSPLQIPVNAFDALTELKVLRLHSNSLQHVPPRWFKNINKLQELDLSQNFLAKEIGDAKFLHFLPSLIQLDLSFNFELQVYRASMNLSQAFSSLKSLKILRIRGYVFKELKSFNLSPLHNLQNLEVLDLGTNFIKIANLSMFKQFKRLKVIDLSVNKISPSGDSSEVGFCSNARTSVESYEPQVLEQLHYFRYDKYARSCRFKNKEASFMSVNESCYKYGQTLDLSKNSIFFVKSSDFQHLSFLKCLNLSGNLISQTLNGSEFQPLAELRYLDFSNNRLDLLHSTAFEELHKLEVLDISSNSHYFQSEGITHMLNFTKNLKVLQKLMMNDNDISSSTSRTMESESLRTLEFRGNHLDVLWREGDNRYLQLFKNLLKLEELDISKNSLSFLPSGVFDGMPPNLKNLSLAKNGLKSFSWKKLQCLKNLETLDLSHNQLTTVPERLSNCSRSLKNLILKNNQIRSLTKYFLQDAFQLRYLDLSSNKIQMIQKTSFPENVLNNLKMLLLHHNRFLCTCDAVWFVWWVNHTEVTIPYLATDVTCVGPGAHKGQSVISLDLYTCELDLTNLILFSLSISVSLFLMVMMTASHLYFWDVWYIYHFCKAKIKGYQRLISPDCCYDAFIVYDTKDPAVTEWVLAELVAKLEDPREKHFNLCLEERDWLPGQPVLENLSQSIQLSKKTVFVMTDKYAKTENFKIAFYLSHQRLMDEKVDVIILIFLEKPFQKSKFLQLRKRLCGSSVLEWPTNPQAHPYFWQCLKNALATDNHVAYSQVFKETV

[2] = biological target: T2, human toll like receptor 8 (hTLR8) (Homo sapiens, UniProt Q9NR97); assay: hTLR8 in-vitro functional assay (HEK-Blue hTLR8 SEAP reporter); type: cell-based; conditions: HEK-Blue hTLR8 cells, overnight incubation
T2 construct: host or cells: HEK293 (HEK-Blue hTLR8)
T2 sequence (Q9NR97 27-1041): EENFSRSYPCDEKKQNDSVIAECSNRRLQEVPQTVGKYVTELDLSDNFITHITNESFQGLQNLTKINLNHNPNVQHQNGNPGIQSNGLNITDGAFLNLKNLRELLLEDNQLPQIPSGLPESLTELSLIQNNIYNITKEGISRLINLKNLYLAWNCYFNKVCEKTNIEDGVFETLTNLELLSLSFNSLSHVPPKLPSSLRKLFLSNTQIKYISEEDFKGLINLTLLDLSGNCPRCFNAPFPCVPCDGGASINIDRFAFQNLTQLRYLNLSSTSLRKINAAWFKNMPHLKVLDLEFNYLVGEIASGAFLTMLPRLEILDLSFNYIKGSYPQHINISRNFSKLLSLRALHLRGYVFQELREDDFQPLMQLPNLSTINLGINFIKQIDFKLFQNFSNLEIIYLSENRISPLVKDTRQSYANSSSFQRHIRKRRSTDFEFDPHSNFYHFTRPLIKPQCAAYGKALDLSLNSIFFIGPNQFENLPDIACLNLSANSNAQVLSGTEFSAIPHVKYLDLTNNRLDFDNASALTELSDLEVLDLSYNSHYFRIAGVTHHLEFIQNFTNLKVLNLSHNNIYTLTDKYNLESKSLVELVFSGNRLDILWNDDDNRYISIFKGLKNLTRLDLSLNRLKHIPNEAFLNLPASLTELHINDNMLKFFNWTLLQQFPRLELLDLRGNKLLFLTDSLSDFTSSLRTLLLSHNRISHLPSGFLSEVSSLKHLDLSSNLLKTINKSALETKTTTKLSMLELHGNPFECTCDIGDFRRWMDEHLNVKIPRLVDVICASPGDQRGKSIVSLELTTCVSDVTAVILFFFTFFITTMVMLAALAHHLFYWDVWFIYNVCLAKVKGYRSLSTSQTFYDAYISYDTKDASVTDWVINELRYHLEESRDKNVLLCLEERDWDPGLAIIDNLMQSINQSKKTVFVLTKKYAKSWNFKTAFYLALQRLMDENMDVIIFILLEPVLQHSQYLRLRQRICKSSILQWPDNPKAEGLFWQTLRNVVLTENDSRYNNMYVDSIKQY

| SMILES | EC50 [1] [µM] | EC50 [2] [µM] |
| --- | --- | --- |
| CCCCc1nc2c(N)nc3cc(CCCN4CCN(C(=O)CCOCCOCCOCCOCCOCCOCCOCCOCCOCCOCCOCCOCCOCCOCCOCCOCCOCCOCCOCCOCCOCCOCCOCCOCCOCCOCCOCCOCCOCCOCCOCCOCCOCCOCCOCCOCCNC(=O)CCOCCOCCOCCOCCNC(=O)CCCOc5c(C)c(C)c6c(c5C)CC[C@@](C)(CCC[C@H](C)CCC[C@H](C)CCCC(C)C)O6)CC4)ccc3c2n1CC(C)(CO)CO [Compound 24] | 0.134 | 2.38 |
| CCCCc1nc2c(N)nc3cc(CCCN4CCN(CCCOCCOCCOCCOCCOCCOCCOCCOCCOCCOCCOCCOCCOCCOCCOCCOCCOCCOCCOCCOCCOCCOCCOCCOCCNC(=O)CCOCCOCCOCCOCCNC(=O)CCCOc5c(C)c(C)c6c(c5C)CC[C@@](C)(CCC[C@H](C)CCC[C@H](C)CCCC(C)C)O6)CC4)ccc3c2n1CC(C)(CO)CO [Compound 26, N-{75-[4-(3-{4-amino-2-butyl-1-[3-hydroxy-2-(hydroxymethyl)-2-methylpropyl]-1H-imidazo[4,5-c]quinolin-7-yl}propyl)piperazin-1-yl]-3,6,9,12,15,18,21,24,27,30,33,36,39,42,45,48,51,54,57,60,63,66,69,72-tetracosaoxapentaheptacontan-1-yl}-17-oxo-20-({(2R)-2,5,7,8-tetramethyl-2-[(4R,8R)-4,8,12-trimethyltridecyl]-3,4-dihydro-2H-1-benzopyran-6-yl}oxy)-4,7,10,13-tetraoxa-16-azaicosan-1-amide] | 0.404 | > 25 |
| CCCCc1nc2c(N)nc3cc(CCCN4CCN(Cc5ccc(NC(=O)[C@H](C)NC(=O)[C@@H](NC(=O)COCCOCCNC(=O)O[C@H]6CC[C@@]7(C)C(=CC[C@H]8[C@@H]9CC[C@H]([C@H](C)CCCC(C)C)[C@@]9(C)CC[C@@H]87)C6)C(C)C)cc5)CC4)ccc3c2n1CC(C)(CO)CO [Compound 27, (3beta)-cholest-5-en-3-yl {(2S,5S)-1-((4-((4-(3-(4-amino-2-butyl-1-(3-hydroxy-2-(hydroxymethyl)-2-methylpropyl)-1H-imidazo[4,5-c]quinolin-7-yl)propyl)piperazin-1-yl)methyl)phenyl)amino)-5-isopropyl-2-methyl-1,4,7-trioxo-9,12-dioxa-3,6-diazatetradecan-14-yl}carbamate] | 3.1 | 2.97 |
| CCCCc1nc2c(N)nc3cc(CCCN4CCN(C(=O)OCc5ccc(NC(=O)[C@H](CCCNC(N)=O)NC(=O)[C@@H](NC(=O)COCCOCCNC(=O)O[C@H]6CC[C@@]7(C)C(=CC[C@H]8[C@@H]9CC[C@H]([C@H](C)CCCC(C)C)[C@@]9(C)CC[C@@H]87)C6)C(C)C)cc5)CC4)ccc3c2n1CC(C)(CO)CO [Compound 28, 4-((12S,15S)-1-(((3beta)-cholest-5-en-3-yl)oxy)-12-isopropyl-1,10,13-trioxo-15-(3-ureidopropyl)-5,8-dioxa-2,11,14-triazahexadecan-16-amido)benzyl 4-(3-(4-amino-2-butyl-1-(3-hydroxy-2-(hydroxymethyl)-2-methylpropyl)-1H-imidazo[4,5-c]quinolin-7-yl)propyl)piperazine-1-carboxylate] | 1.89 | 4.48 |
| CCCCc1nc2c(N)nc3cc(CCCN4CCN(Cc5ccc(NC(=O)[C@H](CCCNC(N)=O)NC(=O)[C@@H](NC(=O)COCCOCCNC(=O)O[C@H]6CC[C@@]7(C)C(=CC[C@H]8[C@@H]9CC[C@H]([C@H](C)CCCC(C)C)[C@@]9(C)CC[C@@H]87)C6)C(C)C)cc5)CC4)ccc3c2n1CC(C)(CO)CO [Compound 29, (3beta)-cholest-5-en-3-yl ((6S,9S)-1-amino-6-((4-((4-(3-(4-amino-2-butyl-1-(3-hydroxy-2-(hydroxymethyl)-2-methylpropyl)-1H-imidazo[4,5-c]quinolin-7-yl)propyl)piperazin-1-yl)methyl)phenyl)carbamoyl)-9-isopropyl-1,8,11-trioxo-13,16-dioxa-2,7,10-triazaoctadecan-18-yl)carbamate] | 0.527 | 5.03 |

More lines, now with the values ahead:

| EC50 [1] [µM] | EC50 [2] [µM] | SMILES |
| --- | --- | --- |
| 0.533 | > 25 | CCCCc1nc2c(N)nc3cc(CCCN4CCN(CCCOCCOCCOCCOCCOCCOCCOCCOCCOCCOCCOCCOCCNC(=O)O[C@H]5CC[C@@]6(C)C(=CC[C@H]7[C@@H]8CC[C@H]([C@H](C)CCCC(C)C)[C@@]8(C)CC[C@@H]76)C5)CC4)ccc3c2n1CC(C)(CO)CO [Compound 21, (20R)-cholest-5-en-3beta-yl {39-[4-(3-{4-amino-2-butyl-1-[3-hydroxy-2-(hydroxymethyl)-2-methylpropyl]-1H-imidazo[4,5-c]quinolin-7-yl}propyl)piperazin-1-yl]-3,6,9,12,15,18,21,24,27,30,33,36-dodecaoxanonatriacontan-1-yl}carbamate] |
| 1.16 | 11.7 | CCCCc1nc2c(N)nc3cc(CCCN4CCN(CCCOCCOCCOCCOCCNC(=O)O[C@H]5CC[C@@]6(C)C(=CC[C@H]7[C@@H]8CC[C@H]([C@H](C)CCCC(C)C)[C@@]8(C)CC[C@@H]76)C5)CC4)ccc3c2n1CC(C)(CO)CO [Compound 22, (20R)-cholest-5-en-3beta-yl {15-[4-(3-{4-amino-2-butyl-1-[3-hydroxy-2-(hydroxymethyl)-2-methylpropyl]-1H-imidazo[4,5-c]quinolin-7-yl}propyl)piperazin-1-yl]-3,6,9,12-tetraoxapentadecan-1-yl}carbamate] |
| 1.68 | 14.9 | CCCCc1nc2c(N)nc3cc(CCCN4CCN(CCCOCCOCCOCCOCCOCCOCCOCCOCCNC(=O)O[C@H]5CC[C@@]6(C)C(=CC[C@H]7[C@@H]8CC[C@H]([C@H](C)CCCC(C)C)[C@@]8(C)CC[C@@H]76)C5)CC4)ccc3c2n1CC(C)(CO)CO [Compound 23, (20R)-cholest-5-en-3beta-yl {27-[4-(3-{4-amino-2-butyl-1-[3-hydroxy-2-(hydroxymethyl)-2-methylpropyl]-1H-imidazo[4,5-c]quinolin-7-yl}propyl)piperazin-1-yl]-3,6,9,12,15,18,21,24-octaoxaheptacosan-1-yl}carbamate] |
| 0.312 | 8.28 | CCCCc1nc2c(N)nc3cc(CCCN4CCN(C(=O)CCOCCOCCOCCOCCOCCOCCOCCOCCOCCOCCOCCOCCNC(=O)CCOCCOCCOCCOCCNC(=O)CCCOc5c(C)c(C)c6c(c5C)CC[C@@](C)(CCC[C@H](C)CCC[C@H](C)CCCC(C)C)O6)CC4)ccc3c2n1CC(C)(CO)CO [Compound 25, N-{39-[4-(3-{4-amino-2-butyl-1-[3-hydroxy-2-(hydroxymethyl)-2-methylpropyl]-1H-imidazo[4,5-c]quinolin-7-yl}propyl)piperazin-1-yl]-39-oxo-3,6,9,12,15,18,21,24,27,30,33,36-dodecaoxanonatriacontan-1-yl}-17-oxo-20-({(2R)-2,5,7,8-tetramethyl-2-[(4R,8R)-4,8,12-trimethyltridecyl]-3,4-dihydro-2H-1-benzopyran-6-yl}oxy)-4,7,10,13-tetraoxa-16-azaicosan-1-amide] |
